Assay results reported in US10323018B2 (Millennium Pharmaceuticals, Inc., priority 2015, dated 2019).
Read-outs that look alike come from different tables or passages of the source.

Legend:
hNAMPT protein = hNAMPT protein (Homo sapiens (Human), UniProt P43490); assay: NAMPT enzyme assay (TR-FRET/HTRF with BodiPY ligand); type: binding; conditions: for IC50: NAMPT inhibition, IC50 range class
Text: As discussed above, the invention provides compounds that are useful as inhibitors of the enzyme NAMPT. The NAMPT inhibition of a compound of the invention can be measured using a variety of methods known in the art. For example, the ability of a compound of the invention to inhibit NAMPT enzyme activity can be measured using a homogeneous time resolved fluorescence (HTRF) assay using hNAMPT protein and anti 6His-Tb in buffer treated with a compound of the invention (or control e.g., DMSO) and BodiPY ligand. The TR-FRET signal can be measured using a high throughput microplate reader (e.g., Pherastar). Excitation can be carried out at 320 nm. The percent inhibition value at a single concentration of compound of the invention can be calculated relative to a control treated sample. A concentration response curve can be generated for each compound of the invention and the curve fitted to generate an IC50 value. […] To measure the inhibition of NAMPT activity hNAMPT protein stock and anti 6His-Tb (Cisbio; Cat. No. […]TLB) is diluted to 3× final concentration with assay buffer (50 mM Tris-HCl (pH 7.5), 1 mM DTT, 100 mM NaCl, 10 mM MgCl2, 0.005% Tween 20). To this solution is added a test compound or vehicle control (DMSO) and BodiPY ligand (structure below). The plate is shaken for 1-2 min sealed and incubated for 1 h at rt in the dark. The TR-FRET signal is measured using BMG Pherastar (Lanthascreen protocol on BMG Pherastar). Excitation was carried out at 320 nm, and the ratio of emission of BodiPY (520 nm) to terbium (486 nm) was determined. Concentration response curves are generated by calculating the excitation increase in test compound-treated samples relative to DMSO-treated controls. For the assay method described above, test compound percent inhibition values at a single concentration are calculated relative to control (DMSO) treated samples. Compound concentration response curves are fitted to generate IC50 values from those curves. One skilled in the art will appreciate that these values generated either as percentage inhibition at a single concentration or IC50 values are subject to experimental variation.

PC3 cells = assay: PC3 growth inhibition (Cell-titer glo, 72 hours); type: cell-based; conditions: Homo sapiens, PC-3, 72 h, read-out: Percent Viability, PC3 cells, compound concentration 1.667 μM, 72 hours
Protocol: The invention also provides compounds that inhibit cell growth. The ability of a compound of the invention to inhibit the growth of cells can be measured using a variety of methods known in the art. For example, the ability of a compound of the invention to inhibit the growth of PC3 cells can be measured. PC3 cells can be plated and incubated overnight under CO2. For each measurement, a compound of the invention (or vehicle e.g., DMSO) can be diluted with AIM serum free medium and added to the cell plate. The cell plate can then be incubated for 72 h under CO2. Cell-titer glo solution can be added and the plates can be incubated protected from light and the amount of luminescences can be measured. Concentration response curves can be generated by calculating the luminescence increase in test compound treated samples relative to DMSO-treated controls. Percentage remaining viability values at a single concentration can be measured. Growth inhibition (GI50) or cell viability (LD50) values can be determined from thoses curves. In one embodiment, compounds of the invention have a percent viability in PC3 line @ 1.667 uM of <1%. In one embodiment, compounds of the invention have a percent viability in PC3 line @ 1.667 uM of <2%. In one embodiment, compounds of the invention have a percent viability in PC3 line @ 1.667 uM of <3%. In one embodiment, compounds of the invention have a percent viability in PC3 line @ 1.667 uM of <4%. In one embodiment, compounds of the invention have a percent viability in PC3 line @ 1.667 uM of <5%. In one embodiment, compounds of the invention have a percent viability in PC3 line @ 1.667 uM of <10%. In one embodiment, compounds of the invention have a percent viability in PC3 line @ 1.667 uM of <50%.
To measure PC3 growth inhibition, PC3 cells that were maintained in RPMI1640 growth medium (Life Technologies; Cat. No. 11875) at 37° C. under 5% CO2 are trypsinized and diluted at a density of 8×10^4 cells/ml, 25 ul per well of cells and plated in 384-well black tissue culture plate. The cells are incubated overnight at 37° C. under 5% CO2. For each measurement, a test compound or vehicle DMSO control is diluted with AIM serum free medium and added to the cell plate. The cell plate is incubated for 72 hours at 37° C. under 5% CO2. 25 μl Cell-titer glo solution (Promega; Cat. No. G8462) is added and the cell plates are incubated for 10 minutes protected from light. The luminescence is measured. Concentration response curves are generated by calculating the luminescence increase in test compound-treated samples relative to DMSO-treated controls. Percentage remaining viability values at a single concentration, growth inhibition (GI50) or cell viability (LD50) values are determined from those curves. One skilled in the art will appreciate that these values are subject to experimental variation.

[1] = NAMPT inhibition at compound concentration 1 μM, read-out: Percent Inhibition

Sequence of hNAMPT protein (P43490 whole entry): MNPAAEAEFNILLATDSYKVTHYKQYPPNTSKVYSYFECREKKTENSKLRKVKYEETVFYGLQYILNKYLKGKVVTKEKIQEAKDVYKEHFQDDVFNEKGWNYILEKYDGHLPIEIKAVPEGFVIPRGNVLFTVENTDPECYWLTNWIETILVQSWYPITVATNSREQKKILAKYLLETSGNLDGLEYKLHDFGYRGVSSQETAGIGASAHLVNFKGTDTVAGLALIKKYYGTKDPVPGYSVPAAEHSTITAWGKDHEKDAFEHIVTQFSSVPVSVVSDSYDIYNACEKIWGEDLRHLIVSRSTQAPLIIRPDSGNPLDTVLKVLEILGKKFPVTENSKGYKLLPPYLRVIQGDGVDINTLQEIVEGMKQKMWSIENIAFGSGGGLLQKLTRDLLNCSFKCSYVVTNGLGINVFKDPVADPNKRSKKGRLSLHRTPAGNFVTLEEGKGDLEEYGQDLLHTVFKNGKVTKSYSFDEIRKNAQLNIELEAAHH

CCc1nc(-c2ccc(Cl)s2)nc2cc(C(=O)NCCCc3ncc[nH]3)ccc12 [Compound I-22, 2-(5-chloro-2-thienyl)-4-ethyl-N-[3-(1H-imidazol-2-yl)propyl]quinazoline-7-carboxamide]
inhibition at 1 µM (hNAMPT protein; [1]): > 99% | IC50 (hNAMPT protein): 0.01 to 0.05 µM | viability at 1.667 µM (PC3 cells): 1%

CCOc1cc(-c2ccc(F)cc2OC)nc2cc(C(=O)NCc3ccn4ncnc4c3)ccc12 [Compound I-85, 4-ethoxy-2-(4-fluoro-2-methoxyphenyl)-N-([1,2,4]triazolo[1,5-a]pyridin-7-ylmethyl)quinoline-7-carboxamide]
inhibition at 1 µM (hNAMPT protein; [1]): 100% | IC50 (hNAMPT protein): < 0.01 µM | viability at 1.667 µM (PC3 cells): 2%

CCOc1cc(-c2ccc(F)cc2)nc2cc(C(=O)N[C@H]3C[C@@H](c4ncc[nH]4)C3)ccc12 [Compound I-60, 4-Ethoxy-2-(4-fluorophenyl)-N-[cis-3-(1H-imidazol-2-yl)cyclobutyl]quinoline-7-carboxamide]
inhibition at 1 µM (hNAMPT protein; [1]): 99% | IC50 (hNAMPT protein): < 0.01 µM | viability at 1.667 µM (PC3 cells): 1%

CCOc1cc(-c2ccc(F)cc2)nc2cc(C(=O)NCc3nc4ccccc4[nH]3)ccc12 [Compound I-54, N-(1H-benzimidazol-2-ylmethyl)-4-ethoxy-2-(4-fluorophenyl)quinoline-7-carboxamide]
inhibition at 0.33 µM (hNAMPT protein; NAMPT inhibition at compound concentration 0.33 μM, read-out: Percent Inhibition): 96% | IC50 (hNAMPT protein): < 0.01 µM | viability at 1.667 µM (PC3 cells): 94%

COc1cc(-c2nc(-c3ccc(F)cc3)nc3cc(C(=O)NCCCc4nnc[nH]4)ccc23)ccn1 [Compound I-197, 2-(4-fluorophenyl)-4-(2-methoxypyridin-4-yl)-N-[3-(4H-1,2,4-triazol-3-yl)propyl]quinazoline-7-carboxamide]
inhibition at 1 µM (hNAMPT protein; [1]): 97% | IC50 (hNAMPT protein): 0.01 to 0.05 µM | viability at 1.667 µM (PC3 cells): 3%

CC[C@@H](F)c1nc(-c2ccc(Cl)cc2)nc2cc(C(=O)NCCCc3ncc[nH]3)ccc12 (stereo in doubt) [Compound I-72, 2-(4-chlorophenyl)-4-[1-fluoropropyl]-N-[3-(1H-imidazol-2-yl)propyl]quinazoline-7-carboxamide]
inhibition at 1 µM (hNAMPT protein; [1]): 98% | IC50 (hNAMPT protein): < 0.01 µM | viability at 1.667 µM (PC3 cells): 1%

CCOc1cc(-c2cc(F)ccc2OC)nc2cc(C(=O)NCCc3cnn[nH]3)ccc12 [Compound I-184, 4-ethoxy-2-(5-fluoro-2-methoxyphenyl)-N-[2-(1H-1,2,3-triazol-5-yl)ethyl]quinoline-7-carboxamide]
inhibition at 1 µM (hNAMPT protein; [1]): 91% | IC50 (hNAMPT protein): 0.05 to 0.1 µM | viability at 1.667 µM (PC3 cells): 6%

CCOc1cc(-c2ccnc(C)c2)nc2cc(C(=O)NCCc3c[nH]nc3C)ccc12 [Compound I-146, 4-ethoxy-N-[2-(3-methyl-1H-pyrazol-4-yl)ethyl]-2-(2-methylpyridin-4-yl)quinoline-7-carboxamide]
inhibition at 1 µM (hNAMPT protein; [1]): 87% | IC50 (hNAMPT protein): 0.05 to 0.1 µM | viability at 1.667 µM (PC3 cells): 2%

CCOc1cc(-c2ccc(F)cc2)nc2cc(C(=O)NCCc3cnn[nH]3)ccc12 [Compound I-107, 4-ethoxy-2-(4-fluorophenyl)-N-[2-(1H-1,2,3-triazol-5-yl)ethyl]quinoline-7-carboxamide]
inhibition at 1 µM (hNAMPT protein; [1]): 99% | IC50 (hNAMPT protein): < 0.01 µM | viability at 1.667 µM (PC3 cells): 2%

CCOc1cc(-c2ccc(F)cc2)nc2cc(C(=O)NCCCc3ccnnc3)ccc12 [Compound I-45, 4-ethoxy-2-(4-fluorophenyl)-N-[3-(pyridazin-4-yl)propyl]quinoline-7-carboxamide]
inhibition at 1 µM (hNAMPT protein; [1]): 100% | IC50 (hNAMPT protein): < 0.01 µM | viability at 1.667 µM (PC3 cells): 8%

CCOc1cc(-c2ccc(Cl)s2)nc2cc(C(=O)NCCCc3nnc[nH]3)ccc12 [Compound I-125, 2-(5-chloro-2-thienyl)-4-ethoxy-N-[3-(4H-1,2,4-triazol-3-yl)propyl]quinoline-7-carboxamide]
inhibition at 1 µM (hNAMPT protein; [1]): 100% | IC50 (hNAMPT protein): < 0.01 µM | viability at 1.667 µM (PC3 cells): 2%

CCOc1cc(-c2ccc(C)nc2)nc2cc(C(=O)NCCc3c[nH]nn3)ccc12 [Compound I-169, 4-ethoxy-2-(6-methylpyridin-3-yl)-N-[2-(1H-1,2,3-triazol-4-yl)ethyl]quinoline-7-carboxamide]
inhibition at 1 µM (hNAMPT protein; [1]): 97% | IC50 (hNAMPT protein): 0.01 to 0.05 µM | viability at 1.667 µM (PC3 cells): 3%

COCc1nc(-c2ccc(Cl)cc2)nc2cc(C(=O)NCCCc3ncc[nH]3)ccc12 [Compound I-25, 2-(4-chlorophenyl)-N-[3-(1H-imidazol-2-yl)propyl]-4-(methoxymethyl)quinazoline-7-carboxamide]
IC50 (hNAMPT protein): < 0.01 µM | inhibition at 1 µM (hNAMPT protein; read-out: Percent Inhibition): 99% | viability at 1.667 µM (PC3 cells): 0%

CCN(C)c1nc(-c2ccc(F)cc2)nc2cc(C(=O)NCCCc3ncc[nH]3)ccc12 [Compound I-39, 4-[ethyl(methyl)amino]-2-(4-fluorophenyl)-N-[3-(1H-imidazol-2-yl)propyl]quinazoline-7-carboxamide]
inhibition at 1 µM (hNAMPT protein; [1]): 96% | IC50 (hNAMPT protein): 0.01 to 0.05 µM | viability at 1.667 µM (PC3 cells): 2%

CCCc1nc(-c2ccc(Cl)cc2)nc2cc(C(=O)NCCc3cncn3C)ccc12 [Compound I-1, 2-(4-chlorophenyl)-N-[2-(1-methyl-1H-imidazol-5-yl)ethyl]-4-propylquinazoline-7-carboxamide]
inhibition at 1 µM (hNAMPT protein; [1]): > 99% | IC50 (hNAMPT protein): < 0.01 µM | viability at 1.667 µM (PC3 cells): 2%

CCOc1cc(-c2ccnc(C)c2)nc2cc(C(=O)NCc3ccn4ncnc4c3)ccc12 [Compound I-86, 4-ethoxy-2-(2-methylpyridin-4-yl)-N-([1,2,4]triazolo[1,5-a]pyridin-7-ylmethyl)quinoline-7-carboxamide]
inhibition at 1 µM (hNAMPT protein; [1]): 99% | IC50 (hNAMPT protein): < 0.01 µM | viability at 1.667 µM (PC3 cells): 2%

CCCc1cc(-c2ccc(F)cc2)nc2cc(C(=O)NCCc3c[nH]nc3C)ccc12 [Compound I-152, 2-(4-fluorophenyl)-N-[2-(3-methyl-1H-pyrazol-4-yl)ethyl]-4-propylquinoline-7-carboxamide]
inhibition at 1 µM (hNAMPT protein; [1]): 84% | IC50 (hNAMPT protein): > 0.1 µM | viability at 1.667 µM (PC3 cells): 2%

CCOc1cc(-c2ccn(C)c(=O)c2)nc2cc(C(=O)NCCCc3cc[nH]n3)ccc12 [Compound I-119, 4-ethoxy-2-(1-methyl-2-oxo-1,2-dihydropyridin-4-yl)-N-[3-(1H-pyrazol-3-yl)propyl]quinoline-7-carboxamide]
inhibition at 1 µM (hNAMPT protein; [1]): 100% | IC50 (hNAMPT protein): 0.01 to 0.05 µM | viability at 1.667 µM (PC3 cells): 2%

CCOc1cc(-c2ccc(C)nc2)nc2cc(C(=O)NCCc3c[nH]nc3C)ccc12 [Compound I-113, 4-ethoxy-N-[2-(3-methyl-1H-pyrazol-4-yl)ethyl]-2-(6-methylpyridin-3-yl)quinoline-7-carboxamide]
inhibition at 1 µM (hNAMPT protein; [1]): 97% | IC50 (hNAMPT protein): 0.01 to 0.05 µM | viability at 1.667 µM (PC3 cells): 2%

CCOc1cc(-c2ccc(C)nc2)nc2cc(C(=O)NCCCc3cnn[nH]3)ccc12 [Compound I-110, 4-ethoxy-2-(6-methylpyridin-3-yl)-N-[3-(1H-1,2,3-triazol-5-yl)propyl]quinoline-7-carboxamide]
inhibition at 1 µM (hNAMPT protein; [1]): 100% | IC50 (hNAMPT protein): < 0.01 µM | viability at 1.667 µM (PC3 cells): 2%
